Patent US10350224B2, “Stabilized modified release vitamin D formulation and method of administering same” (OPKO IRELAND GLOBAL HOLDINGS, LTD., priority 2013, dated 2019)
Where two headings read alike, the source gives them in different places.

Tests used:
[1] = Study A: single-dose pharmacokinetics of serum 25-hydroxyvitamin D3 in subjects with stage 3 or 4 CKD; assay type: in vivo, human; conditions: for Tmax / Cmax / AUC(0-t) / AUC(0-inf) / half-life: human, serum, iv, 448 ug
[2] = test system: serum total 1,25-dihydroxyvitamin D; experiment: Study A: serum total 1,25-dihydroxyvitamin D after single dose; assay type: in vivo, human; conditions: single i.v. dose 448 μg, by 6 hours post-dose
serum iPTH = experiment: Study A: serum iPTH after single dose; assay type: in vivo, human; conditions: single i.v. dose 448 μg, first 96 hours
[3] = Study B: single-dose pharmacokinetics of 25-hydroxyvitamin D3 in healthy subjects; assay type: in vivo; conditions: human, serum, iv, 448 ug, single i.v. dose 448 μg in ethanol solution
[4] = baseline-adjusted 25-hydroxyvitamin D3, 448 μg iv single dose
[5] = observed 25-hydroxyvitamin D3, 448 μg iv single dose

## C=C1CC[C@H](O)C/C1=C/C=C1\CCC[C@]2(C)[C@@H]([C@H](C)CCCC(C)(C)O)CC[C@@H]12 [25-hydroxyvitamin D3]
[1]; [4]
  CL mean (SD): 0.036 (0.014) L/ng * h
  CL median: 0.037 L/ng/h
  F mean: 1.000 (NA)
  Vd mean (SD): 32.94 (11.00) L/ng
  Vd median: 29.70 L/ng
  λ2 mean (SD): 0.0011 (0.0005) h^−1
  λ2 median: 0.0010 h⁻¹
[1]; Study A, single i.v. dose 448 μg in ethanol solution, read-out: Tmax
  Tmax: 30 min
[1]; approximate mean Cmax of 25-hydroxyvitamin D3, Study A, single i.v. dose 448 μg in ethanol solution
  Cmax: ~134 ng/mL
[1]; baseline-adjusted 25-hydroxyvitamin D3, 448 μg iv single dose, read-out: AUC0-42 days mean
  AUC(0-t): 19600 ng·h/mL
[1]; baseline-adjusted 25-hydroxyvitamin D3, 448 μg iv single dose, read-out: AUC0-42 days median
  AUC(0-t): 18800 ng·h/mL
[1]; baseline-adjusted 25-hydroxyvitamin D3, 448 μg iv single dose, read-out: AUC0-inf mean
  AUC(0-inf): 34500 ng·h/mL
[1]; baseline-adjusted 25-hydroxyvitamin D3, 448 μg iv single dose, read-out: AUC0-inf median
  AUC(0-inf): 27000 ng·h/mL
[1]; baseline-adjusted 25-hydroxyvitamin D3, 448 μg iv single dose, read-out: AUC0-last mean
  AUC(0-t): 19600 ng·h/mL
[1]; baseline-adjusted 25-hydroxyvitamin D3, 448 μg iv single dose, read-out: AUC0-last median
  AUC(0-t): 18800 ng·h/mL
[1]; baseline-adjusted 25-hydroxyvitamin D3, 448 μg iv single dose, read-out: Cmax mean (SD)
  Cmax: 110 ng/mL
[1]; baseline-adjusted 25-hydroxyvitamin D3, 448 μg iv single dose, read-out: Cmax median
  Cmax: 111 ng/mL
[1]; baseline-adjusted 25-hydroxyvitamin D3, 448 μg iv single dose, read-out: t1/2 mean (SD) (converted)
  half-life: 31.1 days
[1]; baseline-adjusted 25-hydroxyvitamin D3, 448 μg iv single dose, read-out: t1/2 median (converted)
  half-life: 27.6 days
[1]; baseline-adjusted 25-hydroxyvitamin D3, 448 μg iv single dose, read-out: tmax mean (SD)
  Tmax: 29.4 min
[1]; baseline-adjusted 25-hydroxyvitamin D3, 448 μg iv single dose, read-out: tmax median
  Tmax: 15 min
[1]; observed 25-hydroxyvitamin D3, 448 μg iv single dose, read-out: AUC0-42 days mean
  AUC(0-t): 43500 ng·h/mL
[1]; observed 25-hydroxyvitamin D3, 448 μg iv single dose, read-out: AUC0-42 days median
  AUC(0-t): 47100 ng·h/mL
[1]; observed 25-hydroxyvitamin D3, 448 μg iv single dose, read-out: AUC0-inf mean
  AUC(0-inf): 138000 ng·h/mL
[1]; observed 25-hydroxyvitamin D3, 448 μg iv single dose, read-out: AUC0-inf median
  AUC(0-inf): 124000 ng·h/mL
[1]; observed 25-hydroxyvitamin D3, 448 μg iv single dose, read-out: AUC0-last mean
  AUC(0-t): 43500 ng·h/mL
[1]; observed 25-hydroxyvitamin D3, 448 μg iv single dose, read-out: AUC0-last median
  AUC(0-t): 47100 ng·h/mL
[1]; observed 25-hydroxyvitamin D3, 448 μg iv single dose, read-out: Cmax mean (SD)
  Cmax: 134 ng/mL
[1]; observed 25-hydroxyvitamin D3, 448 μg iv single dose, read-out: Cmax median
  Cmax: 134 ng/mL
[1]; observed 25-hydroxyvitamin D3, 448 μg iv single dose, read-out: t1/2 mean (SD) (converted)
  half-life: 74 days
[1]; observed 25-hydroxyvitamin D3, 448 μg iv single dose, read-out: t1/2 median (converted)
  half-life: 70.6 days
[1]; observed 25-hydroxyvitamin D3, 448 μg iv single dose, read-out: tmax mean (SD)
  Tmax: 29.4 min
[1]; observed 25-hydroxyvitamin D3, 448 μg iv single dose, read-out: tmax median
  Tmax: 15 min
[1]; [5]
  CL mean (SD): 0.0095 (0.0065) L/ng * h
  CL median: 0.0081 L/ng/h
  F mean: 1.000 (NA)
  Vd mean (SD): 20.35 (7.42) L/ng
  Vd median: 19.550 L/ng
  λ2 mean (SD): 0.0005 (0.0002) h^−1
  λ2 median: 0.0004 h⁻¹
[2]
  increase of mean serum total 1,25-dihydroxyvitamin D from pre-treatment baseline: approximately 13 pg/mL
Serum iPTH
  change in serum iPTH: no meaningful change
[3]
  Cmax: 153 ng/mL
